{"source": "ChEMBL document CHEMBL1139024", "about": "“Synthesis and evaluation of an N-acylated photoactivatable analogue of glutathione as probe for glutathione-utilizing enzymes” (Bioorg Med Chem Lett, 2006)", "experiment": "Inhibition of glutathione S-transferase in rat liver"}
{"smiles": "O=C(O)CNC(=O)[C@H](CS)NC(=O)CC[C@H](NC(=O)c1ccc(C(=O)c2ccccc2)cc1)C(=O)O", "values": [{"measurement": "IC50", "value": 1000, "unit": "µM"}]}
